Measured values taken from US9499493B2, “2,4-pyrimidinediamine compounds and their uses” (Rigel Pharmaceuticals, Inc., priority 2002, dated 2016).

Tests used:
[1] = system: cultured human mast cells (CHMC); assay: CHMC low cell density IgE activation: tryptase assay; format: cell-based; conditions: anti-IgE
Method in brief: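 Degranulation is read as supernatant tryptase activity, using tryptase substrate incubated 30 min at room temperature. Before this, CHMC at low density (1000-1500 cells/well) rest 1 hr at 37° C and are triggered with anti-IgE for 30 min at 37° C.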

[2] = system: cultured human mast cells (CHMC); assay: CHMC low cell density ionomycin activation: tryptase assay; format: cell-based

Row | IC50 [1] | IC50 [2] | Structure (SMILES)
1 | 2520 nM | > 10000 nM | CCOC(=O)CNC(=O)Oc1cccc(Nc2nc(Nc3cccc(OCC(=O)NC)c3)ncc2F)c1 [R926918, N4-[3-[[N-(Ethoxycarbonylmethyl)amino]carbonyloxy]phenyl]-5-fluoro-N2-[3-[(N-methylamino)carbonylmethyleneoxy]phenyl]-2,4-pyrimidinediamine]
2 | 1410 nM | > 10000 nM | CCNC(=O)Oc1cccc(Nc2nc(Nc3cccc(OCC(=O)NC)c3)ncc2F)c1 [R926919]
3 | 305 nM | > 10000 nM | CNC(=O)COc1cccc(Nc2ncc(F)c(Nc3ccc(C)c(C(F)(F)F)c3)n2)c1 [R926922, 5-Fluoro-N2-[3-[(N-methylamino)carbonylmethyleneoxy]phenyl]-N4-(4-methyl-3-trifluoromethylphenyl)-2,4-pyrimidinediamine]
4 | 346 nM | > 10000 nM | CNC(=O)COc1cccc(Nc2ncc(F)c(Nc3ccc(F)c(C)c3)n2)c1 [R926923, 5-Fluoro-N4-(4-fluoro-3-methylphenyl)-N2-[3-[(N-methylamino)carbonylmethyleneoxy]phenyl]-2,4-pyrimidinediamine]
5 | 401 nM | > 10000 nM | COC(=O)COc1cc(Nc2ncc(F)c(Nc3cccc(O)c3)n2)cc(OCC(=O)OC)c1 [R926926, N2-[3,5-Bis(methoxycarbonylmethyleneoxy)phenyl]-5-fluoro-N4-(3-hydroxyphenyl)-2,4-pyrimidinediamine]
6 | 348 nM | > 10000 nM | COC(=O)COc1cc(O)cc(Nc2ncc(F)c(Nc3cccc(O)c3)n2)c1 [R926927, 5-Fluoro-N2-[3-hydroxy-5-(methoxycarbonylmethyleneoxy)phenyl]-N4-(3-hydroxyphenyl)-2,4-pyrimidinediamine]
7 | 1920 nM | > 10000 nM | CNC(=O)COc1cc(O)cc(Nc2ncc(F)c(Nc3cccc(O)c3)n2)c1 [R926929, 5-Fluoro-N2-[3-hydroxy-5-[(N-methylamino)carbonylmethyleneoxy]phenyl]-N4-(3-hydroxyphenyl)-2,4-pyrimidinediamine]
8 | > 10000 nM | > 10000 nM | Cc1ccc(-c2ccccc2)cc1Nc1ncc(C)c(Nc2cc(-c3ccccc3)ccc2C)n1 [R935001, N2,N4-Bis[(2-methyl-5-phenyl)phenyl]-5-methyl-2,4-pyrimidinediamine]
9 | > 10000 nM | > 10000 nM | COc1ccc(Nc2ncc(C)c(Nc3ccc(OC)c(-c4ccccc4)c3)n2)cc1-c1ccccc1 [R935002, N2,N4-Bis[(4-methoxy-3-phenyl)phenyl]-5-methyl-2,4-pyrimidinediamine]
10 | > 10000 nM | > 10000 nM | COc1cc(-c2ccccc2)c(C)cc1Nc1ncc(C)c(Nc2cc(C)c(-c3ccccc3)cc2OC)n1 [R935003, N2,N4-Bis[(4-phenyl-2-methoxy-5-methyl)phenyl]-5-methyl-2,4-pyrimidinediamine]
11 | > 10000 nM | > 10000 nM | COc1ccc([C@@H](C)Nc2ncc(Br)c(N[C@H](C)c3ccc(OC)cc3)n2)cc1 [R935016, N2,N4-Bis[1(R)-4-methoxyphenylethyl]-5-bromo-2,4-pyrimidineamine]
12 | 909 nM | 1800 nM | Oc1cccc(Nc2nc(Nc3ccc(OCc4nc(-c5ccccc5)no4)cc3)ncc2F)c1 [R935134, 5-Fluoro-N4-(3-hydroxyphenyl)-N2-[4-(3-phenyl-1,2,4-oxadiazol-5-yl)methyleneoxyphenyl]-2,4-pyrimidinediamine]
13 | 10000 nM | > 10000 nM | CC(C)Oc1ccc(Nc2nc(Nc3ccc(OCc4nc(-c5ccccc5)no4)cc3)ncc2F)cc1 [R935135, 5-Fluoro-N4-(4-isopropoxyphenyl)-N2-[4-(3-phenyl-1,2,4-oxadiazol-5-yl)methyleneoxyphenyl]-2,4-pyrimidinediamine]
14 | 952 nM | 2130 nM | Fc1cnc(Nc2ccc(OCc3nc(-c4ccccc4)no3)cc2)nc1Nc1ccc2c(c1)OCCO2 [R935136, N4-(3,4-Ethylenedioxyphenyl)-5-fluoro-N2-[4-(3-phenyl-1,2,4-oxadiazol-5-yl)methyleneoxyphenyl]-2,4-pyrimidinediamine]
15 | 10000 nM | > 10000 nM | COC(=O)c1cc2cc(Nc3nc(Nc4ccc(OCc5nc(-c6ccccc6)no5)cc4)ncc3F)ccc2o1 [R935137, 5-Fluoro-N4-(2-methoxycarbonylbenzofura-5-yl)-N2-[4-(3-phenyl-1,2,4-oxadiazol-5-yl)methyleneoxyphenyl]-2,4-pyrimidinediamine]
16 | 846 nM | > 10000 nM | CC(C)Oc1ccc(Nc2ncc(F)c(Nc3ccc(OCc4nc(-c5ccccc5)no4)cc3)n2)cc1 [R935139, 5-Fluoro-N2-(4-isopropoxyphenyl)-N4-[4-(3-phenyl-1,2,4-oxadiazol-5-yl)methyleneoxyphenyl]-2,4-pyrimidinediamine]
17 | 275 nM | 959 nM | Fc1cnc(Nc2ccc3c(c2)OCCO3)nc1Nc1ccc(OCc2nc(-c3ccccc3)no2)cc1 [R935140, N2-(3,4-Ethylenedioxyphenyl)-5-fluoro-N4-[4-(3-phenyl-1,2,4-oxadiazol-5-yl)methyleneoxyphenyl]-2,4-pyrimidinediamine]
18 | 727 nM | > 10000 nM | Cc1noc(COc2ccc(Nc3ncc(F)c(Nc4cccc(O)c4)n3)cc2)n1 [R935141, 5-Fluoro-N4-(3-hydroxyphenyl)-N2-[4-(3-methyl-1,2,4-oxadiazol-5-yl)methyleneoxyphenyl]-2,4-pyrimidinediamine]
19 | 873 nM | > 10000 nM | Cc1noc(COc2ccc(Nc3ncc(F)c(Nc4ccc(OC(C)C)cc4)n3)cc2)n1 [R935142, 5-Fluoro-N4-(4-isopropoxyphenyl)-N2-[4-(3-methyl-1,2,4-oxadiazol-5-yl)methyleneoxyphenyl]-2,4-pyrimidinediamine]
20 | 573 nM | > 10000 nM | Cc1noc(COc2ccc(Nc3ncc(F)c(Nc4ccc5c(c4)OCCO5)n3)cc2)n1 [R935143, N4-(3,4-Ethylenedioxyphenyl)-5-fluoro-N2-[4-(3-methyl-1,2,4-oxadiazol-5-yl)methyleneoxyphenyl]-2,4-pyrimidinediamine]
21 | 630 nM | > 10000 nM | Cc1noc(COc2ccc(Nc3nc(Nc4ccc(OC(C)C)cc4)ncc3F)cc2)n1 [R935144, 5-Fluoro-N2-(4-isopropoxyphenyl)-N4-[4-(3-methyl-1,2,4-oxadiazol-5-yl)methyleneoxyphenyl]-2,4-pyrimidinediamine]
22 | 3800 nM | > 10000 nM | COC(=O)c1cc2cc(Nc3ncc(F)c(Nc4ccc(OCc5nc(C)no5)cc4)n3)ccc2o1 [R935146, 5-Fluoro-N2-(2-methoxycarbonylbenzofura-5-yl)-N4-[4-(3-methyl-1,2,4-oxadiazol-5-yl)methyleneoxyphenyl]-2,4-pyrimidinediamine]
23 | 1400 nM | > 10000 nM | Cc1noc(COc2ccc(Nc3nc(Nc4cccc(O)c4)ncc3F)cc2)n1 [R935147, 5-Fluoro-N2-(3-hydroxyphenyl)-N4-[4-(3-methyl-1,2,4-oxadiazol-5-yl)methyleneoxyphenyl]-2,4-pyrimidinediamine]
24 | 2220 nM | 9420 nM | CCOC(=O)C(C)(C)c1ccc(Nc2nc(Nc3ccc4c(c3)OCCO4)ncc2F)cc1 [R935148, N2-(3,4-Ethylenedioxyphenyl)-N4-[4-[(1-ethoxycarbonyl-1-methyl)ethyl]phenyl]-5-fluoro-2,4-pyrimidinediamine]
